This note sets out measurements from patent US20240374590A1, “COMPOSITIONS AND METHODS FOR TREATING CANCER” (A2A PHARMACEUTICALS, INC., priority 2021, published 2024).

Assay [1] relates to HCT-116 human colon carcinoma cell line. Kind of assay: Cell viability assay (SRB) in HCT-116. In kind it is cell-based. As to conditions: 72 hours after treatment, read-out: HCT116 IC50. How it is done: (§1) Human colon carcinoma cell line HCT-116 was a kind gift from Igor Ronninson from University of South Caroli, Columbia, USA. Human breast cancer cell line, JIMT-1 was kindly provided by Ali Osmay Güre from Bilkent University, Ankara, Turkey. Cells were cultured in Dulbecco's modified Eagle's medium (Lonza, NJ, USA), supplemented with 10% fetal bovine serum (FBS, Lonza), 1% non-essential amino acid (NEAA), 2 mM L-glutamine (Sigma Aldrich, MO, USA) and 50 U/ml penicillin/streptomycin (P/S). HCT-116 cells were cultured in McCoy's 5A (modified) (Gibco) medium supplemented with FBS, NEAA, L-glutamine and P/S. All cell lines were tested regularly using MycoAlert Mycoplasma Detection Kit (Lonza). The cumulative length of the cells between thawing and use in the experiments was less than 20 passages.
(§2) Newly synthesized molecules were dissolved in 100% DMSO to yield a stock concentration of 10 mM. For cell viability assay, JIMT-1 (3×10^3 cells/well) and HCT-116 (4×10^3), cells were seeded into 96-well plates, and 24 hours after cell seeding inhibitor treatments were performed at different concentrations. Cell viability was measured 72 hours after treatment with Sulforhodamine B (SRB, Sigma Aldrich) assay as recommended by the manufacturer.

The test system of assay [2] is JIMT-1 human breast cancer cell line. Kind of assay: Cell viability assay (SRB) in JIMT-1. Format: cell-based. As to conditions: 72 hours after treatment, read-out: JIMT1 IC50. How it is done:
as §1, §2

As a reminder, the IC50 is the midpoint of a concentration-inhibition curve.

On to `COc1ccc(-c2cc(Nc3ccnc(N4C[C@H](C)O[C@@H](C)C4)n3)[nH]n2)c(F)c1` [Compound 150, 2-((2S,6S)-2,6-dimethylmorpholino)-N-(3-(2-fluoro-4-methoxyphenyl)-1H-pyrazol-5-yl)pyrimidin-4-amine], for which the IC50 in assay [1] was 23 nM; in assay [2], 16 nM.
Turning to `COc1ccc(-c2cc(Nc3ccnc(N4CCCC4)n3)[nH]n2)c(F)c1` [Compound 151, N-(3-(2-fluoro-4-methoxyphenyl)-1H-pyrazol-5-yl)-2-(pyrrolidin-1-yl)pyrimidin-4-amine], the 50% inhibitory concentration (IC50) was 52 nM in assay [1] and 18 nM in assay [2].
In the case of `COc1ccc(-c2cc(Nc3ccnc(N4CCCCC4)n3)[nH]n2)c(F)c1` [Compound 152, N-(3-(2-fluoro-4-methoxyphenyl)-1H-pyrazol-5-yl)-2-(piperidin-1-yl)pyrimidin-4-amine], the 50% inhibitory concentration (IC50) in assay [1] was determined as 11 nM; in assay [2] it was 5 nM.
Take `COc1ccc(-c2cc(Nc3ccnc(N4CCC4)n3)[nH]n2)c(F)c1` [Compound 153, 2-(azetidin-1-yl)-N-(3-(2-fluoro-4-methoxyphenyl)-1H-pyrazol-5-yl)pyrimidin-4-amine]: the IC50 in assay [1] was found to be 10 nM; in assay [2] it was 6 nM.
On the same counts, the results for `COc1ccc(-c2cc(Nc3ccnc(N4CCCC4C)n3)[nH]n2)c(F)c1` (centres unmarked) [Compound 159, N-(3-(2-fluoro-4-methoxyphenyl)-1H-pyrazol-5-yl)-2-(2-methylpyrrolidin-1-yl)pyrimidin-4-amine] are 76 nM and 47 nM.
For the molecule `COc1ccc(-c2cc(Nc3ccnc(N4CCC(C)C4)n3)[nH]n2)c(F)c1` (centres unmarked) [Compound 160, N-(3-(2-fluoro-4-methoxyphenyl)-1H-pyrazol-5-yl)-2-(3-methylpyrrolidin-1-yl)pyrimidin-4-amine], the IC50 in assay [1] was determined as 147 nM; in assay [2] it was 39 nM.
On the same counts, the results for `COc1ccc(-c2cc(Nc3ccnc(N4CCCCCC4)n3)[nH]n2)c(F)c1` [Compound 167, 2-(azepan-1-yl)-N-(3-(2-fluoro-4-methoxyphenyl)-1H-pyrazol-5-yl)pyrimidin-4-amine] are 89 nM and 41 nM.
For `COc1ccc(-c2n[nH]c(Nc3ccnc(N4CCOCC4)n3)c2C)cc1` [Compound 181, N-(3-(4-methoxyphenyl)-4-methyl-1H-pyrazol-5-yl)-2-morpholinopyrimidin-4-amine] the same measures were 4480 nM and 2630 nM.
For `COc1ccc(-c2cc(Nc3ccnc(N4CCOCC4)n3)n(C)n2)cc1` [Compound 184, N-(3-(4-methoxyphenyl)-1-methyl-1H-pyrazol-5-yl)-2-morpholinopyrimidin-4-amine] the same measures were 20000 nM and 8790 nM.
Consider `COc1ccc(-c2cc(Nc3ccnc(N4C[C@@H](C)O[C@@H](C)C4)n3)n(C)n2)c(F)c1` [Compound 187, 2-((2R,6S)-2,6-dimethylmorpholino)-N-(3-(2-fluoro-4-methoxyphenyl)-1-methyl-1H-pyrazol-5-yl)pyrimidin-4-amine], for which the IC50 was 228 nM in assay [1] and 158 nM in assay [2].
Turning to `COc1ccc(-c2cc(Nc3ccnc(N4C[C@@H](C)O[C@@H](C)C4)n3)nn2C)c(F)c1` [Compound 190, 2-((2R,6S)-2,6-dimethylmorpholino)-N-(5-(2-fluoro-4-methoxyphenyl)-1-methyl-1H-pyrazol-3-yl)pyrimidin-4-amine], the values for the IC50 in assay [1] and in assay [2] were 484 nM and 251 nM, respectively.
For `C[C@@H]1CN(c2nccc(Nc3cc(-c4ccc(C#N)cc4)n[nH]3)n2)C[C@H](C)O1` [Compound 191b, 4-(5-((2-((2R,6S)-2,6-dimethylmorpholino)pyrimidin-4-yl)amino)-1H-pyrazol-3-yl)benzonitrile], the concentration for half-maximal inhibition (IC50) in assay [1] worked out at 1520 nM; in assay [2], 1570 nM.
For `C[C@@H]1CN(c2nccc(Nc3cc(-c4ccc(OC(F)(F)F)c(Cl)c4)n[nH]3)n2)C[C@H](C)O1` [Compound 192b, N-(3-(3-chloro-4-(trifluoromethoxy)phenyl)-1H-pyrazol-5-yl)-2-((2R,6S)-2,6-dimethylmorpholino)pyrimidin-4-amine] the same measures were 8970 nM and 4640 nM.
For `C[C@@H]1CN(c2nccc(Nc3cc(-c4ccc(F)cc4)[nH]n3)n2)C[C@H](C)O1` [Compound 196, 2-((2R,6S)-2,6-dimethylmorpholino)-N-(5-(4-fluorophenyl)-1H-pyrazol-3-yl)pyrimidin-4-amine] the same measures were 619 nM and 383 nM.
For `C[C@@H]1CN(c2nccc(Nc3cc(-c4ccc(C(C)(F)F)cc4)n[nH]3)n2)C[C@H](C)O1` [Compound 200, N-(3-(4-(1,1-difluoroethyl)phenyl)-1H-pyrazol-5-yl)-2-((2R,6S)-2,6-dimethylmorpholino)pyrimidin-4-amine] the same measures were 386 nM and 143 nM.
Take `C[C@@H]1CN(c2nccc(Nc3cc(-c4ccc(OC(F)F)cc4)n[nH]3)n2)C[C@H](C)O1` [Compound 201, N-(3-(4-(difluoromethoxy)phenyl)-1H-pyrazol-5-yl)-2-((2R,6S)-2,6-dimethylmorpholino)pyrimidin-4-amine]: the 50% inhibitory concentration (IC50) in assay [1] came out at 91 nM; in assay [2] it was 76 nM.
Consider `C[C@@H]1CN(c2nccc(Nc3cc(-c4ccc(C(F)F)cc4)n[nH]3)n2)C[C@H](C)O1` [Compound 202, N-(3-(4-(difluoromethyl)phenyl)-1H-pyrazol-5-yl)-2-((2R,6S)-2,6-dimethylmorpholino)pyrimidin-4-amine], for which the IC50 in assay [1] was found to be 722 nM; in assay [2], 187 nM.
On the same counts, the results for `COc1cc(-c2cc(Nc3ccnc(N4C[C@@H](C)O[C@@H](C)C4)n3)[nH]n2)cc(OC)c1OC` [Compound 203, 2-((2R,6S)-2,6-dimethylmorpholino)-N-(3-(3,4,5-trimethoxyphenyl)-1H-pyrazol-5-yl)pyrimidin-4-amine] are 2490 nM and 1700 nM.
In the case of `C[C@@H]1CN(c2nccc(Nc3cc(-c4ccc5occc5c4)n[nH]3)n2)C[C@H](C)O1` [Compound 205, N-(3-(benzofuran-5-yl)-1H-pyrazol-5-yl)-2-((2R,6S)-2,6-dimethylmorpholino)pyrimidin-4-amine], the IC50 in assay [1] was 96 nM; in assay [2] it was 27 nM.
With `COc1ccc(-c2cc(Nc3ccnc(N4C[C@@H](C)O[C@@H](C)C4)n3)[nH]n2)cc1C(F)(F)F` [Compound 207, 2-((2R,6S)-2,6-dimethylmorpholino)-N-(3-(4-methoxy-3-(trifluoromethyl)phenyl)-1H-pyrazol-5-yl)pyrimidin-4-amine], the IC50 was determined as 5530 nM in assay [1] and 974 nM in assay [2].
As for `C[C@@H]1CN(c2nccc(Nc3cc(-c4ccc(Br)cc4)n[nH]3)n2)C[C@H](C)O1` [Compound 208, N-(3-(4-bromophenyl)-1H-pyrazol-5-yl)-2-((2R,6S)-2,6-dimethylmorpholino)pyrimidin-4-amine], the results for the IC50 in assay [1] and in assay [2] were 448 nM and 212 nM, respectively.
On the same counts, the results for `C[C@@H]1CN(c2nccc(Nc3cc(-c4ccc(OCF)cc4)n[nH]3)n2)C[C@H](C)O1` [Compound 210, 2-((2R,6S)-2,6-dimethylmorpholino)-N-(3-(4-(fluoromethoxy)phenyl)-1H-pyrazol-5-yl)pyrimidin-4-amine] are 31 nM and 30 nM.
Regarding `C[C@@H]1CN(c2nccc(Nc3cc(-c4ccc5c(c4)CCC5)[nH]n3)n2)C[C@H](C)O1` [Compound 211, N-(5-(2,3-dihydro-1H-inden-5-yl)-1H-pyrazol-3-yl)-2-((2R,6S)-2,6-dimethylmorpholino)pyrimidin-4-amine], the IC50 in assay [1] worked out at 39 nM; in assay [2] it was 43 nM.
On the same counts, the results for `C[C@@H]1CN(c2nccc(Nc3cc(-c4ccc5c(ccn5C)c4)n[nH]3)n2)C[C@H](C)O1` [Compound 217, 2-((2R,6S)-2,6-dimethylmorpholino)-N-(3-(1-methyl-1H-indol-5-yl)-1H-pyrazol-5-yl)pyrimidin-4-amine] are 5 nM and 6 nM.
For `COc1cc(F)c(-c2cc(Nc3ccnc(N4C[C@@H](C)O[C@@H](C)C4)n3)[nH]n2)cc1F` [Compound 218, N-(3-(2,5-difluoro-4-methoxyphenyl)-1H-pyrazol-5-yl)-2-((2R,6S)-2,6-dimethylmorpholino)pyrimidin-4-amine] the same measures were 20 nM and 13 nM.
Turning to `CC1COCC(C)N1c1nccc(Nc2cc(-c3ccc(OC(F)F)cc3)n[nH]2)n1` (centres unmarked) [Compound 227, N-(3-(4-(difluoromethoxy)phenyl)-1H-pyrazol-5-yl)-2-(3,5-dimethylmorpholino)pyrimidin-4-amine], the IC50 in assay [1] is 2260 nM; in assay [2] it was 1430 nM.
On the same counts, the results for `CC1COCCN1c1nccc(Nc2cc(-c3ccc(OC(F)F)cc3)n[nH]2)n1` (centres unmarked) [Compound 229, N-(3-(4-(difluoromethoxy)phenyl)-1H-pyrazol-5-yl)-2-(3-methylmorpholino)pyrimidin-4-amine] are 62 nM and 96 nM.
On the same counts, the results for `C[C@@H]1CN(c2nccc(Nc3cc(-c4ccc(OC(F)F)cc4)n[nH]3)n2)C[C@@H](C)O1` [Compound 240, N-(3-(4-(difluoromethoxy)phenyl)-1H-pyrazol-5-yl)-2-((2R,6R)-2,6-dimethylmorpholino)pyrimidin-4-amine] are 1060 nM and 103 nM.
